Columns and labels:
Format in all cases: cell-based
GSPT1 = biological target: T1, GSPT1 (Homo sapiens, UniProt P15170+Q96SW2); assay: Western-blot assay, substrate protein degradation in hPBMCs: GSPT1; settings: for substrate protein remaining % GSPT1: 24 hours of compound treatment, 50 nM and 500 nM; for GSPT1 substrate protein remaining %: compounds at 50 nM and 500 nM, 24 hours
T1 construct: effects of the compounds of the present disclosure on the expression of target proteins in cells; endogenous in cells; host or cells: human PBMCs (hPBMCs)
T1 sequence (P15170 whole entry): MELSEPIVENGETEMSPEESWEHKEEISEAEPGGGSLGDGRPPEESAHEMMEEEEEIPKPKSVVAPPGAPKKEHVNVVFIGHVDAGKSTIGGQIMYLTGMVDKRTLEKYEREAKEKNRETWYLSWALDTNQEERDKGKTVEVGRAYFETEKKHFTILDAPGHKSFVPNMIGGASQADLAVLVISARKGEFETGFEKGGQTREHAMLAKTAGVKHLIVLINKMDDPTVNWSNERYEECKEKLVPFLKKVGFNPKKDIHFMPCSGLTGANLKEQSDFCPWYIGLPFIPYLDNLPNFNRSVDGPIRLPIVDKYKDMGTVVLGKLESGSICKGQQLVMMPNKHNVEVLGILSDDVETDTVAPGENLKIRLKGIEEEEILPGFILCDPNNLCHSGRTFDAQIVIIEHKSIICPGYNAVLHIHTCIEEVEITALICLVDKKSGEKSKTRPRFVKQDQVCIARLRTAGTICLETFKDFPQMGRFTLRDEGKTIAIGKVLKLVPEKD
T1 sequence (Q96SW2 whole entry): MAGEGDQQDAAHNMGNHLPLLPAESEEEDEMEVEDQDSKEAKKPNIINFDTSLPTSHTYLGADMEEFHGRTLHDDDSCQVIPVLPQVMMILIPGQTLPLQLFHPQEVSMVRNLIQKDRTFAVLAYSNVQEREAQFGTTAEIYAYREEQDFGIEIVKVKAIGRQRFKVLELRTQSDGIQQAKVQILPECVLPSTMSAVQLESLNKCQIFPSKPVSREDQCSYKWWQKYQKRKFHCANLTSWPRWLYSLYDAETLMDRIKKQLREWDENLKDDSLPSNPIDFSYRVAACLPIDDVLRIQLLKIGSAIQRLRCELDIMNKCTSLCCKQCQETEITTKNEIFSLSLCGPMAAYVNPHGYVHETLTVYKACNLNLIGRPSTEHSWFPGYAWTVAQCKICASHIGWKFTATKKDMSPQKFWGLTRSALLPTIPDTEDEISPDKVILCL
T1 sequence (Q16531 whole entry partner): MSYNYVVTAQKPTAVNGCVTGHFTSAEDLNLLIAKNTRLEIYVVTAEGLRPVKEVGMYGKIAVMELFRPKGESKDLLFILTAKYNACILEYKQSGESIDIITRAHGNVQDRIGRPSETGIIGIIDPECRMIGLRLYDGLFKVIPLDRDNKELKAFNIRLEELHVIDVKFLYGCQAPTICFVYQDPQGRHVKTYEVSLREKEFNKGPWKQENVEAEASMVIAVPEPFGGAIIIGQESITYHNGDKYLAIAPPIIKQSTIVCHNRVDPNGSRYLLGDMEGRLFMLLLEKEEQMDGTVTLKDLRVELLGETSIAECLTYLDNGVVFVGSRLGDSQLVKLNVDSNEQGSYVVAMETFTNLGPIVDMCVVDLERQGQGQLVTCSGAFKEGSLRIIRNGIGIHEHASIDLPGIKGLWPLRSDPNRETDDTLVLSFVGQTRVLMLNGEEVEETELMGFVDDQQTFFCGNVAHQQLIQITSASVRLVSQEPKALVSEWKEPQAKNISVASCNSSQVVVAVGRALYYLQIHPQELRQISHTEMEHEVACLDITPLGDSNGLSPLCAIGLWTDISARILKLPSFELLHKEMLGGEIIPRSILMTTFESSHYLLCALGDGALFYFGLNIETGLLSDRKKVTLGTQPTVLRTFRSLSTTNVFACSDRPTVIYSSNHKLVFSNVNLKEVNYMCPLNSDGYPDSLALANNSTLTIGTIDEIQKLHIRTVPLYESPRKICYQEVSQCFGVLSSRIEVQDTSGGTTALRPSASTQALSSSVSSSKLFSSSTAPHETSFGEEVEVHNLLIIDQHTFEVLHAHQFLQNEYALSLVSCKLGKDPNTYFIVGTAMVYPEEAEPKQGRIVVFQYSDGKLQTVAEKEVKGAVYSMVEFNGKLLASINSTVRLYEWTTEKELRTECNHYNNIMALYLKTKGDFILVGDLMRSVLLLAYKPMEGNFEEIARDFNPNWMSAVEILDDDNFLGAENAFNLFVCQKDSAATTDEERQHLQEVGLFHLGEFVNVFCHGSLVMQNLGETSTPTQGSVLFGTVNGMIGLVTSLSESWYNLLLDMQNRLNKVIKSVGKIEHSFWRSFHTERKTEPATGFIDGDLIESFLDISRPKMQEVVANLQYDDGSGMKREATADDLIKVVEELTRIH

IKZF2 = biological target: T2, IKZF2 (Homo sapiens, UniProt Q96SW2+Q9UKS7); assay: Western-blot assay, substrate protein degradation in hPBMCs: IKZF2; settings: for substrate protein remaining % IKZF2: 24 hours of compound treatment, 50 nM and 500 nM; for IKZF2 substrate protein remaining %: compounds at 50 nM and 500 nM, 24 hours
T2 construct: effects of the compounds of the present disclosure on the expression of target proteins in cells; endogenous in cells; host or cells: human PBMCs (hPBMCs)
T2 sequence (Q9UKS7 whole entry): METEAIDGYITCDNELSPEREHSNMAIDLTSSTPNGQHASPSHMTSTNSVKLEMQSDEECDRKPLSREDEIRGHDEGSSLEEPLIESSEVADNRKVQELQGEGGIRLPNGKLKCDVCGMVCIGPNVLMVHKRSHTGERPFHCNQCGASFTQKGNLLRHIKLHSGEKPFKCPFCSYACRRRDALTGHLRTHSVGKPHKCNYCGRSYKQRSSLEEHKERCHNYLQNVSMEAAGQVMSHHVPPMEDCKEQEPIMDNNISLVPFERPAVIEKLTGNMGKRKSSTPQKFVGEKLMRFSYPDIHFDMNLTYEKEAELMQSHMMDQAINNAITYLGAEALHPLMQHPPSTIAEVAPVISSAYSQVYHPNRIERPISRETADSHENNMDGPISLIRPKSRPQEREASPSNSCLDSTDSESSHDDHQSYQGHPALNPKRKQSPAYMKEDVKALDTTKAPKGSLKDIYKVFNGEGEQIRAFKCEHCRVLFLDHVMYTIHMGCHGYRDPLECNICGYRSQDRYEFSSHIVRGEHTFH
T2 sequence (Q96SW2 whole entry): as the sequence (Q96SW2 whole entry) above
T2 sequence (Q16531 whole entry partner): as the sequence (Q16531 whole entry partner) above

IKZF3 = biological target: T3, IKZF3 (Homo sapiens, UniProt Q96SW2+Q9UKT9); assay: Western-blot assay, substrate protein degradation in hPBMCs: IKZF3; settings: for substrate protein remaining % IKZF3: 24 hours of compound treatment, 50 nM and 500 nM; for IKZF3 substrate protein remaining %: compounds at 50 nM and 500 nM, 24 hours
T3 construct: effects of the compounds of the present disclosure on the expression of target proteins in cells; endogenous in cells; host or cells: human PBMCs (hPBMCs)
T3 sequence (Q9UKT9 whole entry): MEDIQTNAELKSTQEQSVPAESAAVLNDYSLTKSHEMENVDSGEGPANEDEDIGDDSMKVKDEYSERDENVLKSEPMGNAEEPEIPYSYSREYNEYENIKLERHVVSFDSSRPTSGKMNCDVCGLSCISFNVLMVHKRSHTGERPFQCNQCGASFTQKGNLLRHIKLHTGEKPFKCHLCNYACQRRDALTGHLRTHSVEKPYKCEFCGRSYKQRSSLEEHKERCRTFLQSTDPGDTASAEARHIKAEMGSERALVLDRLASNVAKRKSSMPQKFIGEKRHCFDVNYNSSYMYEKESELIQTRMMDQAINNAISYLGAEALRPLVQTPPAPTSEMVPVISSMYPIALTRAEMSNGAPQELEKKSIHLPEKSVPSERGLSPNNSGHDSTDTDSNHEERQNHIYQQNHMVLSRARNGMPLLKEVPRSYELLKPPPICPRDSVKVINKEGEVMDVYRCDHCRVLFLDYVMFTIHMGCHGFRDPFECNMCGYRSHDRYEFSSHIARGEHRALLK
T3 sequence (Q96SW2 whole entry): as the sequence (Q96SW2 whole entry) above
T3 sequence (Q16531 whole entry partner): as the sequence (Q16531 whole entry partner) above

WEE1 = biological target: T4, WEE1 (Homo sapiens, UniProt P30291+Q96SW2); assay: Western-blot assay, substrate protein degradation in hPBMCs: WEE1; settings: for substrate protein remaining % WEE1: 24 hours of compound treatment, 50 nM and 500 nM; for WEE1 substrate protein remaining %: compounds at 50 nM and 500 nM, 24 hours
T4 construct: effects of the compounds of the present disclosure on the expression of target proteins in cells; endogenous in cells; host or cells: human PBMCs (hPBMCs)

CK1α = biological target: T5, CK1α (Homo sapiens, UniProt P48729+Q96SW2); assay: Western-blot assay, substrate protein degradation in hPBMCs: CK1α; settings: for substrate protein remaining % CK1α: 24 hours of compound treatment, 50 nM and 500 nM; for CK1α substrate protein remaining %: compounds at 50 nM and 500 nM, 24 hours
T5 construct: effects of the compounds of the present disclosure on the expression of target proteins in cells; endogenous in cells; host or cells: human PBMCs (hPBMCs)
T5 sequence (P48729 whole entry): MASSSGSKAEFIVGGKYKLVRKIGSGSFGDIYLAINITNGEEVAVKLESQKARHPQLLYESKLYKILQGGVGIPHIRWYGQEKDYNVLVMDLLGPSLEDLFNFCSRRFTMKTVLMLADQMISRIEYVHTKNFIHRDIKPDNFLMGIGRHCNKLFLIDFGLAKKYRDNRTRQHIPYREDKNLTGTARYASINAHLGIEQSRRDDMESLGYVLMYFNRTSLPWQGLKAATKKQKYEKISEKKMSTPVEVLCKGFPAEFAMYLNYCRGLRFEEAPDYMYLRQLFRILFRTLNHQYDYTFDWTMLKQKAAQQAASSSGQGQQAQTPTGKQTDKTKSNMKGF
T5 sequence (Q96SW2 whole entry): as the sequence (Q96SW2 whole entry) above
T5 sequence (Q16531 whole entry partner): as the sequence (Q16531 whole entry partner) above

IKZF1 = biological target: T6, IKZF1 (Homo sapiens, UniProt Q13422+Q96SW2); assay: Western-blot assay, substrate protein degradation in hPBMCs: IKZF1; settings: for substrate protein remaining % IKZF1: 24 hours of compound treatment, 50 nM and 500 nM; for IKZF1 substrate protein remaining %: compounds at 50 nM and 500 nM, 24 hours
T6 construct: effects of the compounds of the present disclosure on the expression of target proteins in cells; endogenous in cells; host or cells: human PBMCs (hPBMCs)
T6 sequence (Q13422 whole entry): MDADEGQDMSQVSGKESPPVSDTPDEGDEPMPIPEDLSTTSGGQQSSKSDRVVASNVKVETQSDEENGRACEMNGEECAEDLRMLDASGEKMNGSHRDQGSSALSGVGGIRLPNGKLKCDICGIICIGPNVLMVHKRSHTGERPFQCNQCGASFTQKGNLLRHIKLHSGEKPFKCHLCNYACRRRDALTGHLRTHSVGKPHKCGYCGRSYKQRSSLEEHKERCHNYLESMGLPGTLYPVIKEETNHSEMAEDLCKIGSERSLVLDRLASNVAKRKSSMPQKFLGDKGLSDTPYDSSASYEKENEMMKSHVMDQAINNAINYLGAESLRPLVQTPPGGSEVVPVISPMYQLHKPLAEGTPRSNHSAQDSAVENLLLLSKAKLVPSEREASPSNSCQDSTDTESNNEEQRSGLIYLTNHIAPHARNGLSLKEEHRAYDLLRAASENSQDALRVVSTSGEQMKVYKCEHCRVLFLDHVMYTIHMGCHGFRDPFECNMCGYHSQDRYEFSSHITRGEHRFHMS
T6 sequence (Q96SW2 whole entry): as the sequence (Q96SW2 whole entry) above
T6 sequence (Q16531 whole entry partner): as the sequence (Q16531 whole entry partner) above

| SMILES | substrate protein remaining % GSPT1 (GSPT1) | GSPT1 substrate protein remaining % (GSPT1) | substrate protein remaining % IKZF2 (IKZF2) | IKZF2 substrate protein remaining % (IKZF2) | substrate protein remaining % IKZF3 (IKZF3) | IKZF3 substrate protein remaining % (IKZF3) | substrate protein remaining % WEE1 (WEE1) | WEE1 substrate protein remaining % (WEE1) | substrate protein remaining % CK1α (CK1α) | CK1α substrate protein remaining % (CK1α) | substrate protein remaining % IKZF1 (IKZF1) | IKZF1 substrate protein remaining % (IKZF1) |
| --- | --- | --- | --- | --- | --- | --- | --- | --- | --- | --- | --- | --- |
| O=C1CCN(N2Cc3cc(CN4CCN(c5nccc(I)c5F)CC4)ccc3C2=O)C(=O)N1 [GT-05406, 1-(5-((4-(3-fluoro-4-iodopyridin-2-yl)piperazin-1-yl)methyl)-1-oxoisoindolin-2-yl)dihydropyrimidine-2,4(1H,3H)-dione] | A (0% ≤ substrate protein remaining % ≤ 80%) | A ("A" is defined as 0% ≤ substrate protein remaining % ≤ 80%) | B (80%< substrate protein remaining %≤ 100%) | A ("A" is defined as 0% ≤ substrate protein remaining % ≤ 80%) | B (80%< substrate protein remaining %≤ 100%) | B ("B" is defined as 80%< substrate protein remaining %≤ 100%) | B (80%< substrate protein remaining %≤ 100%) | A ("A" is defined as 0% ≤ substrate protein remaining % ≤ 80%) | B (80%< substrate protein remaining %≤ 100%) | B ("B" is defined as 80%< substrate protein remaining %≤ 100%) | B (80%< substrate protein remaining %≤ 100%) | B ("B" is defined as 80%< substrate protein remaining %≤ 100%) |
| O=C1CCN(N2Cc3cc(CN4CCN(c5nccc(Cl)c5Br)CC4)ccc3C2=O)C(=O)N1 [GT-05432, 1-(5-((4-(3-bromo-4-chloropyridin-2-yl)piperazin-1-yl)methyl)-1-oxoisoindolin-2-yl)dihydropyrimidine-2,4(1H,3H)-dione] | A (0% ≤ substrate protein remaining % ≤ 80%) | B ("B" is defined as 80%< substrate protein remaining %≤ 100%) | B (80%< substrate protein remaining %≤ 100%) | B ("B" is defined as 80%< substrate protein remaining %≤ 100%) | B (80%< substrate protein remaining %≤ 100%) | B ("B" is defined as 80%< substrate protein remaining %≤ 100%) | A (0% ≤ substrate protein remaining % ≤ 80%) | A ("A" is defined as 0% ≤ substrate protein remaining % ≤ 80%) | B (80%< substrate protein remaining %≤ 100%) | B ("B" is defined as 80%< substrate protein remaining %≤ 100%) | B (80%< substrate protein remaining %≤ 100%) | B ("B" is defined as 80%< substrate protein remaining %≤ 100%) |
| O=C1CCN(N2Cc3cc(CN4CCN(c5ncc(C(F)(F)F)cc5Cl)CC4)ccc3C2=O)C(=O)N1 [GT-05433, 1-(5-((4-(3-chloro-5-(trifluoromethyl)pyridin-2-yl)piperazin-1-yl)methyl)-1-oxoisoindolin-2-yl)dihydropyrimidine-2,4(1H,3H)-dione] | A (0% ≤ substrate protein remaining % ≤ 80%) | A ("A" is defined as 0% ≤ substrate protein remaining % ≤ 80%) | A (0% ≤ substrate protein remaining % ≤ 80%) | B ("B" is defined as 80%< substrate protein remaining %≤ 100%) | B (80%< substrate protein remaining %≤ 100%) | B ("B" is defined as 80%< substrate protein remaining %≤ 100%) | A (0% ≤ substrate protein remaining % ≤ 80%) | A ("A" is defined as 0% ≤ substrate protein remaining % ≤ 80%) | B (80%< substrate protein remaining %≤ 100%) | B ("B" is defined as 80%< substrate protein remaining %≤ 100%) | B (80%< substrate protein remaining %≤ 100%) | B ("B" is defined as 80%< substrate protein remaining %≤ 100%) |
| O=C1CCN(N2Cc3cc(CN4CCN(c5cccnc5)CC4)ccc3C2=O)C(=O)N1 [GT-05434, 1-(1-oxo-5-((4-(pyridin-3-yl)piperazin-1-yl)methyl)isoindolin-2-yl)dihydropyrimidine-2,4(1H,3H)-dione] | A (0% ≤ substrate protein remaining % ≤ 80%) | A ("A" is defined as 0% ≤ substrate protein remaining % ≤ 80%) | A (0% ≤ substrate protein remaining % ≤ 80%) | B ("B" is defined as 80%< substrate protein remaining %≤ 100%) | B (80%< substrate protein remaining %≤ 100%) | B ("B" is defined as 80%< substrate protein remaining %≤ 100%) | A (0% ≤ substrate protein remaining % ≤ 80%) | A ("A" is defined as 0% ≤ substrate protein remaining % ≤ 80%) | A (0% ≤ substrate protein remaining % ≤ 80%) | B ("B" is defined as 80%< substrate protein remaining %≤ 100%) | B (80%< substrate protein remaining %≤ 100%) | B ("B" is defined as 80%< substrate protein remaining %≤ 100%) |
| O=C1CCN(N2Cc3cc(CN4CCN(c5ccc(Cl)nc5)CC4)ccc3C2=O)C(=O)N1 [GT-05435, 1-(5-((4-(6-chloropyridin-3-yl)piperazin-1-yl)methyl)-1-oxoisoindolin-2-yl)dihydropyrimidine-2,4(1H,3H)-dione] | – | A ("A" is defined as 0% ≤ substrate protein remaining % ≤ 80%) | – | B ("B" is defined as 80%< substrate protein remaining %≤ 100%) | – | B ("B" is defined as 80%< substrate protein remaining %≤ 100%) | – | A ("A" is defined as 0% ≤ substrate protein remaining % ≤ 80%) | – | B ("B" is defined as 80%< substrate protein remaining %≤ 100%) | – | B ("B" is defined as 80%< substrate protein remaining %≤ 100%) |
| O=C1CCN(N2Cc3cc(CN4CCN(c5cncc(Cl)c5Cl)CC4)ccc3C2=O)C(=O)N1 [GT-05436, 1-(5-((4-(4,5-dichloropyridin-3-yl)piperazin-1-yl)methyl)-1-oxoisoindolin-2-yl)dihydropyrimidine-2,4(1H,3H)-dione] | A (0% ≤ substrate protein remaining % ≤ 80%) | A ("A" is defined as 0% ≤ substrate protein remaining % ≤ 80%) | B (80%< substrate protein remaining %≤ 100%) | B ("B" is defined as 80%< substrate protein remaining %≤ 100%) | B (80%< substrate protein remaining %≤ 100%) | B ("B" is defined as 80%< substrate protein remaining %≤ 100%) | A (0% ≤ substrate protein remaining % ≤ 80%) | A ("A" is defined as 0% ≤ substrate protein remaining % ≤ 80%) | B (80%< substrate protein remaining %≤ 100%) | B ("B" is defined as 80%< substrate protein remaining %≤ 100%) | B (80%< substrate protein remaining %≤ 100%) | B ("B" is defined as 80%< substrate protein remaining %≤ 100%) |
| O=C1CCN(N2Cc3cc(CN4CCN(c5ccncc5)CC4)ccc3C2=O)C(=O)N1 [GT-05437, 1-(1-oxo-5-((4-(pyridin-4-yl)piperazin-1-yl)methyl)isoindolin-2-yl)dihydropyrimidine-2,4(1H,3H)-dione] | A (0% ≤ substrate protein remaining % ≤ 80%) | – | B (80%< substrate protein remaining %≤ 100%) | – | B (80%< substrate protein remaining %≤ 100%) | – | B (80%< substrate protein remaining %≤ 100%) | – | B (80%< substrate protein remaining %≤ 100%) | – | B (80%< substrate protein remaining %≤ 100%) | – |
| Cc1cc(N2CCN(Cc3ccc4c(c3)CN(N3CCC(=O)NC3=O)C4=O)CC2)ccn1 [GT-05438, 1-(5-((4-(2-methylpyridin-4-yl)piperazin-1-yl)methyl)-1-oxoisoindolin-2-yl)dihydropyrimidine-2,4(1H,3H)-dione] | A (0% ≤ substrate protein remaining % ≤ 80%) | – | B (80%< substrate protein remaining %≤ 100%) | – | A (0% ≤ substrate protein remaining % ≤ 80%) | – | A (0% ≤ substrate protein remaining % ≤ 80%) | – | A (0% ≤ substrate protein remaining % ≤ 80%) | – | A (0% ≤ substrate protein remaining % ≤ 80%) | – |

— patent EP4722207A1, “OXOISOINDOLINYL-SUBSTITUTED TETRAHYDROPYRIMIDINEDIONE DERIVATIVE AND USE THEREOF” (Gluetacs Therapeutics (Shanghai) Co., Ltd., priority 2023, dated 2024)
